From article doi:10.1101/208439v1 (biorxiv, 2017)

Experiments:
Assay in all cases: biochemical
MLL3 Complex = MLL3 Complex (Homo sapiens, UniProt Q8NEZ4); parameters: gene KMT2C
DNMT3a = DNMT3a (Homo sapiens, UniProt Q9Y6K1)
PRMT3 = PRMT3 (Homo sapiens, UniProt O60678)
SUV39H2 = SUV39H2 (Homo sapiens, UniProt Q9H5I1)
SET7/9 = molecular target: T1, SET7/9 (Homo sapiens, UniProt Q8WTS6)
T1 construct: gene SETD7
T1 sequence (Q8WTS6 1-366): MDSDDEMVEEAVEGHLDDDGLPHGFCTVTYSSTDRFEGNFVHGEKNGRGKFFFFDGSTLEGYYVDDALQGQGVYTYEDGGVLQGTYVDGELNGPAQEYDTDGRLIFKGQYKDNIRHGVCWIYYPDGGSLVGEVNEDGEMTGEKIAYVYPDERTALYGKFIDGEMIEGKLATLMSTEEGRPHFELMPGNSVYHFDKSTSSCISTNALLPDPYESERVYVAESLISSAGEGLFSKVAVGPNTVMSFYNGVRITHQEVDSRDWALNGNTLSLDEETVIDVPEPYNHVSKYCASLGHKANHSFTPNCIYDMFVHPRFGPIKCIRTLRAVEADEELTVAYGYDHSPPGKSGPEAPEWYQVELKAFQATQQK

MLL1 Complex = MLL1 Complex (Homo sapiens, UniProt Q03164); parameters: gene KMT2A
SETD2 = molecular target: T2, SETD2 (Homo sapiens, UniProt Q9BYW2)
T2 sequence (Q9BYW2 1434-1711): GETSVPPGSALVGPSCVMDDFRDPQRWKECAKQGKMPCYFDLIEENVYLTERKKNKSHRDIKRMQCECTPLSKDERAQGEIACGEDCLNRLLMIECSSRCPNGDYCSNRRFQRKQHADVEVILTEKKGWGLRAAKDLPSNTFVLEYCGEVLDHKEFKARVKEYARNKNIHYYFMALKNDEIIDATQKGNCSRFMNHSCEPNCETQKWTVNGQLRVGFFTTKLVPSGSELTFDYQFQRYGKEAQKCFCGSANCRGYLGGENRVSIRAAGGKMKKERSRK

SMYD1 = molecular target: T3, SMYD1 (Homo sapiens, UniProt Q8NB12)
T3 sequence (Q8NB12 1-490): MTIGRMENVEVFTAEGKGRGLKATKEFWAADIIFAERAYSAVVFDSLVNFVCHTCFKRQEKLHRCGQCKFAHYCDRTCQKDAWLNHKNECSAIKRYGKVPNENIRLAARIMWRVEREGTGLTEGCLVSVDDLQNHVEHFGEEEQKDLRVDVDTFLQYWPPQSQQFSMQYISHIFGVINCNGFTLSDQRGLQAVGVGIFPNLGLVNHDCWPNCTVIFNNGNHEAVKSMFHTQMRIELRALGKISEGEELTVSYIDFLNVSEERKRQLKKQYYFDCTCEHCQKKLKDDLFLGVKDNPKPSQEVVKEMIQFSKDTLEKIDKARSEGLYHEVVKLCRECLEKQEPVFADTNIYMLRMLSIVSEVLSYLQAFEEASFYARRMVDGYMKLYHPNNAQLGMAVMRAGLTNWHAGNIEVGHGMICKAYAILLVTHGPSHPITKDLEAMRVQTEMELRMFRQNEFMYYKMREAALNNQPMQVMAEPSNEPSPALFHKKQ

DNMT3b/3L = DNMT3b/3L (Homo sapiens, UniProt Q9UBC3)
GLP = molecular target: T4, GLP (Homo sapiens, UniProt Q9H9B1)
T4 construct: gene EHMT1
T4 sequence (Q9H9B1 1-1298): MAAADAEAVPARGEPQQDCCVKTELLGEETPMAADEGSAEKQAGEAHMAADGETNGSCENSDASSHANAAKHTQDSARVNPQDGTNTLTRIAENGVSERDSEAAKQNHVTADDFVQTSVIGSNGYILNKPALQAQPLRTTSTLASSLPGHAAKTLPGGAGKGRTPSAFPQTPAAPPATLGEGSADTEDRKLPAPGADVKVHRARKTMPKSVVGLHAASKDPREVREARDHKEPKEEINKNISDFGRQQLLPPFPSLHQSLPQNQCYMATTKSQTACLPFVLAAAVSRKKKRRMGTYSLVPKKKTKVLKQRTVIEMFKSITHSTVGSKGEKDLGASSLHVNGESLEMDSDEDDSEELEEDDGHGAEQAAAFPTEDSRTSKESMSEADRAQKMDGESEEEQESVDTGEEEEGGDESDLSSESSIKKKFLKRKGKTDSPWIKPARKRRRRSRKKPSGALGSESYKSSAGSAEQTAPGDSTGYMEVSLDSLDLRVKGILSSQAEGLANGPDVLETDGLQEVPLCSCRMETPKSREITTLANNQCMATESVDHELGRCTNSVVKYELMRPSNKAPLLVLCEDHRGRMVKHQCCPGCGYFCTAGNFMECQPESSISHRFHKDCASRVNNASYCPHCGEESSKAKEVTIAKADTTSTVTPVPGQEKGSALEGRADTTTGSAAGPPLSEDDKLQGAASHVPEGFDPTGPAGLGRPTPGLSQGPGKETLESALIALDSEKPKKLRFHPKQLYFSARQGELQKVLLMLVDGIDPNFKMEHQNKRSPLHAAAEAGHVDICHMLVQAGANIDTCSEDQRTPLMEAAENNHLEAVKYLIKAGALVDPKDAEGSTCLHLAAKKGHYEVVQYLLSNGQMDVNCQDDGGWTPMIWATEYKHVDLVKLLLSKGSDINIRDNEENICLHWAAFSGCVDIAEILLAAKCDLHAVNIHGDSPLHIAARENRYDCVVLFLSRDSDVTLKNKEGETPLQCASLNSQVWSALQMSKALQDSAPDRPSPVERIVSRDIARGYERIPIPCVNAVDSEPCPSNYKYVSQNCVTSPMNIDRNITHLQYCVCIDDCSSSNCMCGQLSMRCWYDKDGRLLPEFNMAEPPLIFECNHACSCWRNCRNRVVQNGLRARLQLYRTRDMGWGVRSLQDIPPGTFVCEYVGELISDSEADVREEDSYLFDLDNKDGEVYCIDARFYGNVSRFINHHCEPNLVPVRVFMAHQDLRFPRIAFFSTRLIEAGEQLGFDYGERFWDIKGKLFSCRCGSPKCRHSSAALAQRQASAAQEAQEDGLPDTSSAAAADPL

MLL2 Complex = MLL2 Complex (Homo sapiens, UniProt O14686); parameters: gene KMT2D
SET1b Complex = SET1b Complex (Homo sapiens, UniProt Q9UPS6); parameters: gene SETD1B
MLL4 Complex = MLL4 Complex (Homo sapiens, UniProt Q9UMN6); parameters: gene KMT2B
MLL4 Complex, sequence (Q9UMN6 whole entry, looked up, one chain of several): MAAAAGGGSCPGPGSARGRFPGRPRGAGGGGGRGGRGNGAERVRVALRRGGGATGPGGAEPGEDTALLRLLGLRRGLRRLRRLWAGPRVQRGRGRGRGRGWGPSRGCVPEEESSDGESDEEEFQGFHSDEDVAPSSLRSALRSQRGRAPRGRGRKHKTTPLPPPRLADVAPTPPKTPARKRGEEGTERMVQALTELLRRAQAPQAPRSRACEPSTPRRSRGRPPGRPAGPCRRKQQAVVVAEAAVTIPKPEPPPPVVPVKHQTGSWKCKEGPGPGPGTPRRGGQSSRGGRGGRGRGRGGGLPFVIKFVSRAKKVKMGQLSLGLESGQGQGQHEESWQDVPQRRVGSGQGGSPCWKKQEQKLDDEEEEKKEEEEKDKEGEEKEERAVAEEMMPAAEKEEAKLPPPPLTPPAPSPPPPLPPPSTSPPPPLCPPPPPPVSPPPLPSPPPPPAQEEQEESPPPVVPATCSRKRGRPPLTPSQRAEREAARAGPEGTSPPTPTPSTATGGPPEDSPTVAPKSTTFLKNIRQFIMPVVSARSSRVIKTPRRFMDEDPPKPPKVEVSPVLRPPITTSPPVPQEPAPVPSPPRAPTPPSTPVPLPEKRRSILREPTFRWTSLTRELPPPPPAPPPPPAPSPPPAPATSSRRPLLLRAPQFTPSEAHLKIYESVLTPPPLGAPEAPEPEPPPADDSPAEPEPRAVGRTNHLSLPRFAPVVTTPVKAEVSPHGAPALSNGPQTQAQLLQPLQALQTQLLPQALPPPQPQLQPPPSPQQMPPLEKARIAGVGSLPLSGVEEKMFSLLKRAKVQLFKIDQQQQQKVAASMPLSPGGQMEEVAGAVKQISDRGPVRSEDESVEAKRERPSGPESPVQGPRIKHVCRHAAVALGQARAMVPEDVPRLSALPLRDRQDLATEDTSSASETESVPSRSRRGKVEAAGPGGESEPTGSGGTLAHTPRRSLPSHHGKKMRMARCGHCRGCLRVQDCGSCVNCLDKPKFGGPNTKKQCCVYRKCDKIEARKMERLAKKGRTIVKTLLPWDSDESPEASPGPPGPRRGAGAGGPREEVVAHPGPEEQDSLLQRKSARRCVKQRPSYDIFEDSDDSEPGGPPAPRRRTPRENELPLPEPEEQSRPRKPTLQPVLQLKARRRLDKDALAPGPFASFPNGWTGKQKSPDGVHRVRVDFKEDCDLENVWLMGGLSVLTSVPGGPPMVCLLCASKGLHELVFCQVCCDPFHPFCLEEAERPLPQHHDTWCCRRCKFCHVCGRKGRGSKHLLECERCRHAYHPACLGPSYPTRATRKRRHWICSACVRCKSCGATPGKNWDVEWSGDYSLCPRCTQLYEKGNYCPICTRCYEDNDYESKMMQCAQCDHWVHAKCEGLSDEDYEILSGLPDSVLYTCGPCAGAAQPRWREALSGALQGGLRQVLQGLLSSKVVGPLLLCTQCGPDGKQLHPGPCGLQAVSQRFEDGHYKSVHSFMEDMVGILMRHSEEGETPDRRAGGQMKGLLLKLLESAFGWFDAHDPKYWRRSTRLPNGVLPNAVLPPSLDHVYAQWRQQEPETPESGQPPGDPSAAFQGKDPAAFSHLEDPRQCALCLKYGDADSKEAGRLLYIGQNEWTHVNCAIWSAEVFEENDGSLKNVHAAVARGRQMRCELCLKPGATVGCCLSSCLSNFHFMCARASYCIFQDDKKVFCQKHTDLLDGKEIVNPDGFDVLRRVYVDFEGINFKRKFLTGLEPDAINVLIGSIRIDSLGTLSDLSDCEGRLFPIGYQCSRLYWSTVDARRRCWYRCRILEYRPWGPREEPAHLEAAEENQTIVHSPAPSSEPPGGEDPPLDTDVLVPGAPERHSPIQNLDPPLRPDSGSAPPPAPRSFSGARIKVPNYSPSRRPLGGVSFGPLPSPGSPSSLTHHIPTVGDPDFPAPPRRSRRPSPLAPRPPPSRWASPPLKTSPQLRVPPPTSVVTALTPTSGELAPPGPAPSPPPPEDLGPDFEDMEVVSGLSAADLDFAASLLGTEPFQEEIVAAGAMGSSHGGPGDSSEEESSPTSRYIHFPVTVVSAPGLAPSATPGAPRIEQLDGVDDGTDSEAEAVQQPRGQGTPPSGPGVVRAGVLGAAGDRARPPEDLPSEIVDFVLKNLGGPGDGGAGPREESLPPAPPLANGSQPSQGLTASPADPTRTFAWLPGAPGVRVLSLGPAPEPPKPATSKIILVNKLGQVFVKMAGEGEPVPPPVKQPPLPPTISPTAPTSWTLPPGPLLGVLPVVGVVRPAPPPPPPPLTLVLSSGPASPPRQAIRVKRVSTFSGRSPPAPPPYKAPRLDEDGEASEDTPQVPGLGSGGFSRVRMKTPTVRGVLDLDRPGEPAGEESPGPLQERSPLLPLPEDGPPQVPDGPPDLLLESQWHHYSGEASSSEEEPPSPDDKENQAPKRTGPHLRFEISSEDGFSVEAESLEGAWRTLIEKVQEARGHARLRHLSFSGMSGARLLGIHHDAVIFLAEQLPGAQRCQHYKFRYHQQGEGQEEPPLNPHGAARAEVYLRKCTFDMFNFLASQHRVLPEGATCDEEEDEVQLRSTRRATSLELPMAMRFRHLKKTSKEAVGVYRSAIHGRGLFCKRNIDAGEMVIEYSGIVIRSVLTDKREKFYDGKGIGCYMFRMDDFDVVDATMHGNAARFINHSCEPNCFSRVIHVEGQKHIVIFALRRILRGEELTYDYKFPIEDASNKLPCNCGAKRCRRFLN

SET1b Complex, sequence (Q9UPS6 whole entry, looked up, one chain of several): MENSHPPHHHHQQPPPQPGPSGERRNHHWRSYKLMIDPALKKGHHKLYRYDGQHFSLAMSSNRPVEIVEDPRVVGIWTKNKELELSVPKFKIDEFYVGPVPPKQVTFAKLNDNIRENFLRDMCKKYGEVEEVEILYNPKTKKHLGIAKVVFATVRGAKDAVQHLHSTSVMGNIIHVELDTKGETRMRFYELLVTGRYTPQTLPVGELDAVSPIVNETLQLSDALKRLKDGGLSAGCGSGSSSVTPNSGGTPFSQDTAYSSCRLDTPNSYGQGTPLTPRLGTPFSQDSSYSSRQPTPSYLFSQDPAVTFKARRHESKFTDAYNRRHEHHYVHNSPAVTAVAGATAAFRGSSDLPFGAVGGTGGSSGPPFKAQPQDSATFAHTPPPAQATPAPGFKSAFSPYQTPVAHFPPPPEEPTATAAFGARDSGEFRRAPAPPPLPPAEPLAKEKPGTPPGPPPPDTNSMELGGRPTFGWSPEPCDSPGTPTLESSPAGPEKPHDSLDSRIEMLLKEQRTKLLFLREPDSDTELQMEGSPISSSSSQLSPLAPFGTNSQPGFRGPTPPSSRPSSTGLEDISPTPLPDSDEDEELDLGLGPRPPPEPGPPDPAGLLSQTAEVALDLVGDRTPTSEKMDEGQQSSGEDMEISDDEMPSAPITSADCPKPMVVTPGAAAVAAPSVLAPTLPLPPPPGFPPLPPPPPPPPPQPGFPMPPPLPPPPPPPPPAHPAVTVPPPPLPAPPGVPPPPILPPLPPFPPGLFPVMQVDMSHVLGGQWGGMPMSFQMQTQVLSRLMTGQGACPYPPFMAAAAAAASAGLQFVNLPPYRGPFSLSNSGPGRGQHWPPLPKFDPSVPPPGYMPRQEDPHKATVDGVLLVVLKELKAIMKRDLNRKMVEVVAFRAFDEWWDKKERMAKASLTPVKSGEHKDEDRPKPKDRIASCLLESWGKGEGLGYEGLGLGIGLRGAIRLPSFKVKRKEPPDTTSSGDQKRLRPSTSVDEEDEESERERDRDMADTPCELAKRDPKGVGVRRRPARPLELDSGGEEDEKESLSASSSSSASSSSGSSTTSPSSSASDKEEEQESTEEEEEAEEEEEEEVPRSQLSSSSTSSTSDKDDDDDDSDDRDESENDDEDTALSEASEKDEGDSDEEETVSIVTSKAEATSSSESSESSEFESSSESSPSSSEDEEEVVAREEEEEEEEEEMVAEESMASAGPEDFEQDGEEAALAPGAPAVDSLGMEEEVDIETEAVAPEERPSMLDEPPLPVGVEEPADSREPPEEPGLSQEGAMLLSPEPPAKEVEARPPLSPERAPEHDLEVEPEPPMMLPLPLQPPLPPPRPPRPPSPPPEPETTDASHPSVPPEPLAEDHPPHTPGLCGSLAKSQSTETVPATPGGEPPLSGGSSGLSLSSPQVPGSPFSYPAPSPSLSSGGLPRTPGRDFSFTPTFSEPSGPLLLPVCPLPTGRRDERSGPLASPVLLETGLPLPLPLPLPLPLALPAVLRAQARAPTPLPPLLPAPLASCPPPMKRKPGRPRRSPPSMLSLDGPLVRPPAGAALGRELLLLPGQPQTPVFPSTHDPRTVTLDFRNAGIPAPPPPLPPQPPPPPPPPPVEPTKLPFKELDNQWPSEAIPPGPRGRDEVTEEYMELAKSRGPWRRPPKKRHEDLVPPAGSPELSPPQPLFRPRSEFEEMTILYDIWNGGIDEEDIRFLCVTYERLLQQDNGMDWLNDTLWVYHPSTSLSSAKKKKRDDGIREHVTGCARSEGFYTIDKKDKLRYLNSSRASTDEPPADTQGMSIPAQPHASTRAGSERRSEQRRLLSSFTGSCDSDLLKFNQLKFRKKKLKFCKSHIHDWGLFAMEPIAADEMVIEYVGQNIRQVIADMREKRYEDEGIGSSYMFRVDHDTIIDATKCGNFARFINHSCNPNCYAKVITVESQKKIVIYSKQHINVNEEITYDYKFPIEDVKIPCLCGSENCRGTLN
SUV39H2, sequence (Q9H5I1 48-410): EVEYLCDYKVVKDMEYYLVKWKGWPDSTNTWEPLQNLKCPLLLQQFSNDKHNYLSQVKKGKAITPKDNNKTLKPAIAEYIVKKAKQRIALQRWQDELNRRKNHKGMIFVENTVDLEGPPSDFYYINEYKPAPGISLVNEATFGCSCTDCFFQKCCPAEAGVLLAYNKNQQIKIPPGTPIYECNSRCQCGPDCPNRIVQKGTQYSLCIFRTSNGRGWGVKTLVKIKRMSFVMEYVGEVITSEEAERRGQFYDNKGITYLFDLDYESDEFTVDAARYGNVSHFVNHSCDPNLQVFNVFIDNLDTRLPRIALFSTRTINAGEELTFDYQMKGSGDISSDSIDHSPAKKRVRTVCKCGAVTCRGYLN

IC50 (MLL3 Complex): 57000 nM
IC50 (DNMT3a): 120 nM
IC50 (PRMT3): 2300 nM
IC50 (SUV39H2): 55000 nM
IC50 (SET7/9): 83000 nM
IC50 (MLL1 Complex): 550 nM
IC50 (SETD2): 5200 nM
IC50 (SMYD1): 37000 nM
IC50 (DNMT3b/3L): 12 nM
IC50 (GLP): 530 nM
IC50 (MLL2 Complex): 27000 nM
IC50 (SET1b Complex): 1500 nM
IC50 (MLL4 Complex): 2500 nM
SMILES: Nc1ncnc2c1ncn2[C@@H]1O[C@H](CSCC[C@H](N)C(=O)O)[C@@H](O)[C@H]1O [SAH]
